Measurements reported in ChEMBL document CHEMBL1148604 (J Med Chem, 2006).
Values after ≈ are worked out from the molar mass of the structure shown.

What was measured:
Escherichia coli = assay: Inhibitory activity against Escherichia coli ANSI; assay type: functional
[1] = tested on: Mycobacterium tuberculosis; assay: Inhibitory activity against Mycobacterium tuberculosis H37Rv; assay type: functional
[2] = biological target: T1, 3-oxoacyl-[acyl-carrier-protein] synthase 1 (Escherichia coli K-12, UniProt P0A953); assay: Inhibitory activity against FabB from Escherichia coli ANSI
T1 sequence (P0A953 whole entry): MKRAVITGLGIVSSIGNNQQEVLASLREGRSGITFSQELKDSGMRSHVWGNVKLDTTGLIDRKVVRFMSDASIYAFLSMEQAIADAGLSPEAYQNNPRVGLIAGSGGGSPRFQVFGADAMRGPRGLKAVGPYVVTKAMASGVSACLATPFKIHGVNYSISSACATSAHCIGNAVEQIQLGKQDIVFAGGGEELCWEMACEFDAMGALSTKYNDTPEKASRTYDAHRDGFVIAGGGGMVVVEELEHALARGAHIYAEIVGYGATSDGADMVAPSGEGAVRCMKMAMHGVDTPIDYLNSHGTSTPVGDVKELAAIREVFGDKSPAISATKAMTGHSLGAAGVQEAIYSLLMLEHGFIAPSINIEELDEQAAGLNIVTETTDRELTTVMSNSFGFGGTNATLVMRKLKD

[3] = biological target: T2, 3-oxoacyl-[acyl-carrier-protein] synthase 3 (Escherichia coli, UniProt C3TDZ2); assay: Inhibitory activity against FabH from Escherichia coli ANSI
T2 sequence (C3TDZ2 whole entry): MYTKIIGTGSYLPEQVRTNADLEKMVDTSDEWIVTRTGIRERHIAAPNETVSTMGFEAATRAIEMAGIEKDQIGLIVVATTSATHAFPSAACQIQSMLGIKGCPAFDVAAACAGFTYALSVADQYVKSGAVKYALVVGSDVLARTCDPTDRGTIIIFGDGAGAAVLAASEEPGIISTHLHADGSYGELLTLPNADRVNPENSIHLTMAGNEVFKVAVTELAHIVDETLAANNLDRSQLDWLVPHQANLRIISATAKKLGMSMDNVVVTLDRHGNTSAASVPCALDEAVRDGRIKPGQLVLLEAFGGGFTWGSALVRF

[4] = biological target: T3, Mycobacterial beta-ketoacyl-[acyl-carrier-protein] synthase III (Mycobacterium tuberculosis, UniProt P9WNG3); assay: Inhibitory activity against FabH from Mycobacterium tuberculosis H37Rv
T3 sequence (P9WNG3 whole entry): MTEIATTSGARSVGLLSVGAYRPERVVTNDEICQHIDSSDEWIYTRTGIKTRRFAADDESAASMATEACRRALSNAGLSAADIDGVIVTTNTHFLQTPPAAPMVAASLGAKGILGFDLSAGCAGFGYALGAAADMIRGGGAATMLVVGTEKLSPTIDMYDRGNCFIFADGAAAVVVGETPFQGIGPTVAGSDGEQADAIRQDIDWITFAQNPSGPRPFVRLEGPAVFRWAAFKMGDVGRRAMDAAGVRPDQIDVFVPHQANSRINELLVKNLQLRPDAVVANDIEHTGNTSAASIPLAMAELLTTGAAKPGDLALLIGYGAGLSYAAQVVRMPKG

[5] = biological target: T4, 3-oxoacyl-[acyl-carrier-protein] synthase 2 (Mycobacterium tuberculosis, UniProt P9WQD7); assay: Inhibitory activity against KasB from Mycobacterium tuberculosis H37Rv
T4 sequence (P9WQD7 whole entry): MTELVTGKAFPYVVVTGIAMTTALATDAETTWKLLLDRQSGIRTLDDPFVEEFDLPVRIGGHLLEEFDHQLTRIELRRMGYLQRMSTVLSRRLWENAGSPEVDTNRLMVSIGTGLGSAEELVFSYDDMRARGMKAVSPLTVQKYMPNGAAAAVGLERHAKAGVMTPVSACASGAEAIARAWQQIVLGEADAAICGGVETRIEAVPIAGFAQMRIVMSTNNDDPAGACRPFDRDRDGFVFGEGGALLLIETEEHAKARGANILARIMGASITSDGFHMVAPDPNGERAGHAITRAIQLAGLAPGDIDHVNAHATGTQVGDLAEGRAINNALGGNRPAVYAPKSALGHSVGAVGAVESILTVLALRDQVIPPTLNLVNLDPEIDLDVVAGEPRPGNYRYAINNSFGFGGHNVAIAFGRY

wild-type apo-KasA = wild-type apo-KasA (Mycobacterium tuberculosis, UniProt P9WQD9); assay: Inhibitory activity against KasA from Mycobacterium tuberculosis H37Rv
Chain of wild-type apo-KasA (P9WQD9 whole entry, looked up): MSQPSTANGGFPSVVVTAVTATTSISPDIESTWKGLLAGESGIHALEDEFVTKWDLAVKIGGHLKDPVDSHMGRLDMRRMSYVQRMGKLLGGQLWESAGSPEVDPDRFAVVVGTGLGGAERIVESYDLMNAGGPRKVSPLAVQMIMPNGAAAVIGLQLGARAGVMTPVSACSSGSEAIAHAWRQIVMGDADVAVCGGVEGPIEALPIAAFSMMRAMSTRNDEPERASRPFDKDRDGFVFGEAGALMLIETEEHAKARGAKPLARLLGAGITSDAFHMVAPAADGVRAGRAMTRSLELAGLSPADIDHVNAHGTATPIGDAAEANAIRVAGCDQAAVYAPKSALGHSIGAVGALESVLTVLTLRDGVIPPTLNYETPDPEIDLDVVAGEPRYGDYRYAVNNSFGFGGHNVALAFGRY

CC1=C(O)C(C)(Cc2ccccc2Cl)SC1=O (stereo not given)
MIC (Escherichia coli): > 1000 µM
MIC [1]: 1000 µM (≈ 269 µg/mL)
IC50 [2]: > 1000 µM
IC50 [3]: > 1000 µM
IC50 [4]: > 1000 µM
IC50 [5]: > 1000 µM
IC50 (wild-type apo-KasA): > 1000 µM

C=CCCCCCCC1(C)SC(=O)C(C)=C1O (stereo not given)
MIC (Escherichia coli): 200 µM (≈ 50.9 µg/mL)
MIC [1]: 500 µM (≈ 127 µg/mL)
IC50 [2]: > 1000 µM
IC50 [3]: > 1000 µM
IC50 [4]: > 1000 µM
IC50 [5]: > 1000 µM
IC50 (wild-type apo-KasA): > 1000 µM

COc1ccc(CC2(C)SC(O)=C(C)C2=O)cc1 (stereo not given)
MIC (Escherichia coli): > 1000 µM
MIC [1]: > 1000 µM
IC50 [2]: > 1000 µM
IC50 [3]: > 1000 µM
IC50 [4]: > 1000 µM
IC50 [5]: > 1000 µM
IC50 (wild-type apo-KasA): > 1000 µM

CC1=C(O)C(C)(Cc2c(Cl)cccc2Cl)SC1=O (stereo not given)
MIC (Escherichia coli): > 1000 µM
MIC [1]: 500 µM (≈ 152 µg/mL)
IC50 [2]: > 1000 µM
IC50 [3]: > 1000 µM
IC50 [4]: > 1000 µM
IC50 [5]: > 1000 µM
IC50 (wild-type apo-KasA): > 1000 µM

CC1=C(O)C(C)(CC2CCC2)SC1=O (stereo not given)
MIC (Escherichia coli): > 1000 µM
MIC [1]: 1000 µM (≈ 212 µg/mL)
IC50 [2]: > 1000 µM
IC50 [3]: > 1000 µM
IC50 [4]: > 1000 µM
IC50 [5]: > 1000 µM
IC50 (wild-type apo-KasA): > 1000 µM

C=CCCC1(C)SC(=O)C(C)=C1O (stereo not given)
MIC (Escherichia coli): > 1000 µM
MIC [1]: > 1000 µM
IC50 [2]: > 1000 µM
IC50 [3]: > 1000 µM
IC50 [4]: > 1000 µM
IC50 [5]: > 1000 µM
IC50 (wild-type apo-KasA): > 1000 µM

CCCCCCCCCCCCCCCCCCCCC1(C)SC(O)=C(C)C1=O (stereo not given)
MIC [1]: > 1000 µM

COc1ccccc1CC1(C)SC(O)=C(C)C1=O (stereo not given)
MIC (Escherichia coli): > 1000 µM
MIC [1]: > 1000 µM
IC50 [2]: > 1000 µM
IC50 [3]: > 1000 µM
IC50 [4]: > 100 µM
IC50 [5]: > 1000 µM
IC50 (wild-type apo-KasA): > 1000 µM

CC1=C(O)C(C)(Cc2ccc(C)cc2)SC1=O (stereo not given)
MIC (Escherichia coli): > 1000 µM
MIC [1]: > 1000 µM
IC50 [2]: > 1000 µM
IC50 [3]: > 1000 µM
IC50 [4]: > 1000 µM
IC50 [5]: > 1000 µM
IC50 (wild-type apo-KasA): > 1000 µM

CCCCCC(C)C1(C)SC(O)=C(C)C1=O (stereo not given)
MIC (Escherichia coli): 160 µM (≈ 38.8 µg/mL)
MIC [1]: 1000 µM (≈ 242 µg/mL)
IC50 [2]: > 1000 µM
IC50 [3]: > 1000 µM
IC50 [4]: > 1000 µM
IC50 [5]: > 1000 µM
IC50 (wild-type apo-KasA): > 1000 µM

CC1=C(O)C(C)(Cc2ccc(Cl)cc2)SC1=O (stereo not given)
MIC (Escherichia coli): > 1000 µM
MIC [1]: 1000 µM (≈ 269 µg/mL)
IC50 [2]: > 1000 µM
IC50 [3]: > 1000 µM
IC50 [4]: > 100 µM
IC50 [5]: > 1000 µM
IC50 (wild-type apo-KasA): > 1000 µM

CC1=C(O)C(C)(Cc2cccc(C)c2)SC1=O (stereo not given)
MIC (Escherichia coli): > 1000 µM
MIC [1]: 1000 µM (≈ 248 µg/mL)
IC50 [2]: > 1000 µM
IC50 [3]: > 1000 µM
IC50 [4]: > 1000 µM
IC50 [5]: > 1000 µM
IC50 (wild-type apo-KasA): > 1000 µM

CC1=C(O)C(C)(Cc2ccc3ccccc3c2)SC1=O (stereo not given)
MIC (Escherichia coli): > 1000 µM
MIC [1]: 500 µM (≈ 142 µg/mL)
IC50 [2]: > 1000 µM
IC50 [3]: > 1000 µM
IC50 [4]: > 100 µM
IC50 [5]: > 1000 µM
IC50 (wild-type apo-KasA): > 1000 µM

COc1cccc(CC2(C)SC(O)=C(C)C2=O)c1 (stereo not given)
MIC (Escherichia coli): > 1000 µM
MIC [1]: > 1000 µM
IC50 [2]: > 1000 µM
IC50 [3]: > 1000 µM
IC50 [4]: > 1000 µM
IC50 [5]: > 1000 µM
IC50 (wild-type apo-KasA): > 1000 µM

CCCCC(CC)CC1(C)SC(O)=C(C)C1=O (stereo not given)
MIC (Escherichia coli): > 1000 µM
MIC [1]: 1000 µM (≈ 256 µg/mL)
IC50 [2]: > 1000 µM
IC50 [3]: > 1000 µM
IC50 [4]: > 1000 µM
IC50 [5]: > 1000 µM
IC50 (wild-type apo-KasA): > 1000 µM

CCCCCCCCCCCC1(C)SC(O)=C(C)C1=O (stereo not given)
MIC (Escherichia coli): 25 µM (≈ 7.46 µg/mL)
MIC [1]: 500 µM (≈ 149 µg/mL)
IC50 [2]: > 1000 µM
IC50 [3]: > 100 µM
IC50 [4]: 100 µM
IC50 [5]: > 1000 µM
IC50 (wild-type apo-KasA): > 1000 µM

CCCCCCCCC(C)C1(C)SC(O)=C(C)C1=O (stereo not given)
MIC (Escherichia coli): 35 µM (≈ 9.96 µg/mL)
MIC [1]: 1000 µM (≈ 284 µg/mL)
IC50 [2]: > 1000 µM
IC50 [3]: > 1000 µM
IC50 [4]: 75 µM
IC50 [5]: > 1000 µM
IC50 (wild-type apo-KasA): > 1000 µM

CCCCCCCCCCCCCCCC1(C)SC(O)=C(C)C1=O (stereo not given)
MIC [1]: 500 µM (≈ 177 µg/mL)

CCCCCCCCCCCCCCCCCCC1(C)SC(O)=C(C)C1=O (stereo not given)
MIC [1]: > 1000 µM
